Earlier results, collected in article PMC7904743, “WIDOCK: a reactive docking protocol for virtual screening of covalent inhibitors” (Journal of Computer-Aided Molecular Design, 2021).
Like-named read-outs stand apart in the source and are kept apart here.

Tests used:
NUDT7 = conditions: protein labeling at 200 μM; experimental actives if % labeling higher than 50%; cited from earlier work
[1] = thiol reactivity, cited from earlier work
OTUB2 = conditions: experimental actives if % labeling higher than 50%, cited from earlier work
[2] = natural log of average rate constant k
[3] = natural logarithm of average rate constant
[4] = natural log of average kinetic rate constant
[5] = natural log of average rate constant

SMILES | NUDT7 % labeling (NUDT7) | ln(avg k) [1, 2] | ln(avg k) [1, 3] | OTUB2 % labeling (OTUB2) | ln(avg k) [1, 4] | ln(avg k) [1, 5] | OTUB2 % labeling (OTUB2; OTUB2 protein labeling)
O=C(CCl)Nc1ccc(Br)cc1Cl [PCM-0102505, O=C(CCl)Nc1ccc(Br)cc1Cl] | 59% | -16.521 | -16.521 | 7% | – | – | –
O=C(CCl)Nc1cc2c(cc1Cl)OCCO2 [PCM-0102585, O=C(CCl)Nc1cc2c(cc1Cl)OCCO2] | 12% | -16.394 | -16.394 | 0% | – | – | –
O=C(CCl)Nc1ccc(F)c(F)c1 [PCM-0102328, O=C(CCl)Nc1ccc(F)c(F)c1] | 0% | -15.726 | -15.726 | 31% | – | – | –
CC(C)(C)OC(=O)N1CCCC(CNC(=O)CCl)C1 (stereo not shown) [PCM-0102923, CC(C)(C)OC(=O)N1CCCC(CNC(=O)CCl)C1] | 0% | – | – | – | -16.613 | -16.613 | 20%
CN1C(=O)c2ccc(NC(=O)CCl)cc2C1=O [PCM-0102309, CN1C(=O)c2ccc(NC(=O)CCl)cc2C1=O] | 12% | -15.418 | -15.418 | 19% | – | – | –
CCc1cccc(C)c1NC(=O)CCl [PCM-0102618, CCc1cccc(C)c1NC(=O)CCl] | 11% | -17.017 | -17.017 | 0% | – | – | –
O=C(CCl)N1CCCC(C(F)(F)F)C1 (stereo not shown) [PCM-0102676, O=C(CCl)N1CCCC(C(F)(F)F)C1] | 14% | -15.616 | -15.616 | 0% | – | – | –
Cc1cccc(N(C(=O)CCl)C2C=CS(=O)(=O)C2)c1 (stereo not shown) [PCM-0102579, Cc1cccc(N(C(=O)CCl)C2C=CS(=O)(=O)C2)c1] | 40% | -15.240 | -15.240 | 0% | – | – | –
COC(=O)C1(NC(=O)CCl)CCC(C)CC1 (stereo not shown) [PCM-0102827, COC(=O)C1(NC(=O)CCl)CCC(C)CC1] | 0% | – | – | – | -16.743 | -16.743 | 0%
O=C(CCl)N1CCN(c2cccc(C(F)(F)F)c2)CC1 [PCM-0102239, O=C(CCl)N1CCN(c2cccc(C(F)(F)F)c2)CC1] | 8% | -15.673 | -15.673 | 0% | – | – | –
O=C(CCl)N1CCOC2CCCCC21 (stereo not shown) [PCM-0102940, O=C(CCl)N1CCOC2CCCCC21] | 0% | – | – | – | -15.696 | -15.696 | 0%
Cc1cccc(NC(=O)CCl)c1 [PCM-0102116, Cc1cccc(NC(=O)CCl)c1] | 0% | -15.855 | -15.855 | 11% | – | – | –
O=C(CCl)Nc1cccc2ncccc12 [PCM-0102097, O=C(CCl)Nc1cccc2ncccc12] | 0% | -16.130 | -16.130 | 42% | – | – | –
O=C(CCl)N1CCN(Cc2ccccc2)CC1 [PCM-0103063, O=C(CCl)N1CCN(Cc2ccccc2)CC1] | 7% | – | – | – | -16.178 | -16.178 | 35%
O=C(CCl)NC(=O)NCC(F)(F)F [PCM-0103037, O=C(CCl)NC(=O)NCC(F)(F)F] | 0% | – | – | – | -15.772 | -15.772 | 30%
O=C(CCl)Nc1cccnc1Cl [PCM-0102274, O=C(CCl)Nc1cccnc1Cl] | 0% | -16.315 | -16.315 | 0% | – | – | –
O=C(CCl)Nc1ccc(N2CCCC2)cc1 [PCM-0102670, O=C(CCl)Nc1ccc(N2CCCC2)cc1] | 0% | -13.297 | -13.297 | 48% | – | – | –
CC(NC(=O)CCl)c1ccccc1 (stereo not shown) [PCM-0102128, CC(NC(=O)CCl)c1ccccc1] | 13% | -16.398 | -16.398 | 42% | – | – | –
O=C(CCl)Nc1ccc([N+](=O)[O-])cc1Br [PCM-0102848, O=C(CCl)Nc1ccc([N+](=O)[O-])cc1Br] | 24% | – | – | – | -16.062 | -16.062 | 0%
O=C1CN(C(=O)CCl)c2ccccc2N1 [PCM-0102362, O=C1CN(C(=O)CCl)c2ccccc2N1] | 0% | -15.567 | -15.567 | 0% | – | – | –
Cc1cc(Br)ccc1NC(=O)CCl [PCM-0102799, Cc1cc(Br)ccc1NC(=O)CCl] | 24% | – | – | – | -16.305 | -16.305 | 61%
CC1CN(c2ccc(NC(=O)CCl)cc2)CC(C)O1 (stereo not shown) [PCM-0102750, CC1CN(c2ccc(NC(=O)CCl)cc2)CC(C)O1] | 0% | – | – | – | -15.710 | -15.710 | 24%
